How the values were obtained:
[1] = test system: primary human fibroblasts derived from IPF patients (LL29 cells), α-smooth muscle actin (αSMA); experiment: Inhibition of the fibrotic process: TGF-β1-treated primary human fibroblasts from IPF patients, αSMA staining; format: cell-based; conditions: Fibroblast, 96 h, 4 days; for EC50: LL29 fibroblasts from IPF patients, TGF-β1 20 ng/mL, inhibition of fibrotic process; for inhibition at 10 µM: LL29 fibroblasts, TGF-β1 treated, read-out: percent inhibition at 10 μM (given for EC50 of >10 μM)
Method in brief: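 LL29 cells plated in F12 with 1% FBS, compounds added as 11-point 1:2 series (10 μM to 1.87 nM, 0.1% DMSO), then TGF-β1 20 ng/mL; 4 days at 37 °C. Fixed, αSMA immunostained, imaged; SYTOX-positive cells excluded. % αSMA-positive cells normalized to TGF-β1 wells; EC50 by non-linear regression, or % inhibition at 10 μM.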

SW480 colon cancer cells = experiment: Cell viability assay (CellTiter-Blue), four days; format: cell-based; conditions: Homo sapiens, 96 h; for EC50: CellTiter-Blue cell viability; for inhibition at 10 µM: read-out: percent inhibition at 10 μM (given for EC50 of >10 μM)
Method in brief: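 SW480 cells (~2×10^3 per well) were exposed to compound for four days at 37 °C/5% CO2, using 8-point 1:3 dilutions from 10 μM to 0.0045 μM in duplicate. Viability was read by resazurin reduction (CellTiter-Blue, ~3 h, Ex 560/Em 590 nm). EC50 came from non-linear regression; above 10 μM, percent inhibition at 10 μM is given.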

| SMILES | EC50 [1] | inhibition at 10 µM [1] | EC50 (SW480 colon cancer cells) | inhibition at 10 µM (SW480 colon cancer cells) |
| --- | --- | --- | --- | --- |
| c1cc(-c2ccnc3[nH]c(-c4n[nH]c5ccc(-c6cnccn6)nc45)nc23)ccn1 [Compound 584, 5-(Pyrazin-2-yl)-3-(7-(pyridin-4-yl)-3H-imidazo[4,5-b]pyridin-2-yl)-1H-pyrazolo[4,3-b]pyridine] | > 10 µM | 4.5% | > 10 µM | 10.8% |
| O=C(CC1CCNCC1)Nc1cncc(-c2ccc3[nH]nc(-c4nc5c(-c6ccccn6)ccnc5[nH]4)c3n2)c1 [Compound 593, 2-(Piperidin-4-yl)-N-(5-(3-(7-(pyridin-2-yl)-3H-imidazo[4,5-b]pyridin-2-yl)-1H-pyrazolo[4,3-b]pyridin-5-yl)pyridin-3-yl)acetamide] | 0.913 µM | – | > 10 µM | 16.7% |
| c1cc(N2CCCCC2)c2nc(-c3n[nH]c4ccc(-c5cncc(OCCN6CCCC6)c5)nc34)[nH]c2n1 [Compound 610, 3-(7-(Piperidin-1-yl)-3H-imidazo[4,5-b]pyridin-2-yl)-5-(5-(2-(pyrrolidin-1-yl)ethoxy)pyridin-3-yl)-1H-pyrazolo[4,3-b]pyridine] | 2.27 µM | – | > 10 µM | 3.5% |
| COc1cncc(-c2ccc3[nH]nc(-c4nc5c(N6CCCCC6)ccnc5[nH]4)c3n2)c1 [Compound 612, 5-(5-Methoxypyridin-3-yl)-3-(7-(piperidin-1-yl)-3H-imidazo[4,5-b]pyridin-2-yl)-1H-pyrazolo[4,3-b]pyridine] | > 10 µM | 30.3% | > 10 µM | 6.1% |
| Cc1cn(-c2ccnc3[nH]c(-c4n[nH]c5ccc(C6=CCNCC6)nc45)nc23)cn1 [Compound 618, 3-(7-(4-Methyl-1H-imidazol-1-yl)-3H-imidazo[4,5-b]pyridin-2-yl)-5-(1,2,3,6-tetrahydropyridin-4-yl)-1H-pyrazolo[4,3-b]pyridine] | > 10 µM | 0% | > 10 µM | 2.8% |
| Cc1cn(-c2ccnc3[nH]c(-c4n[nH]c5ccc(-c6cncc(N7CC(N)C7)n6)nc45)nc23)cn1 [Compound 622, 1-(6-(3-(7-(4-Methyl-1H-imidazol-1-yl)-3H-imidazo[4,5-b]pyridin-2-yl)-1H-pyrazolo[4,3-b]pyridin-5-yl)pyrazin-2-yl)azetidin-3-amine] | 4.82 µM | – | > 10 µM | 4.7% |
| Cc1cn(-c2ccnc3[nH]c(-c4n[nH]c5ccc(-c6cncc(OCCN(C)C)c6)nc45)nc23)cn1 [Compound 627, N,N-Dimethyl-2-((5-(3-(7-(4-methyl-1H-imidazol-1-yl)-3H-imidazo[4,5-b]pyridin-2-yl)-1H-pyrazolo[4,3-b]pyridin-5-yl)pyridin-3-yl)oxy)ethan-1-amine] | 4.8 µM | – | > 10 µM | 14.8% |
| CN1CCN(c2ccnc3[nH]c(-c4n[nH]c5ccc(-c6cncc(OC7CCCCC7)c6)nc45)nc23)CC1 [Compound 639, 5-(5-(Cyclohexyloxy)pyridin-3-yl)-3-(7-(4-methylpiperazin-1-yl)-3H-imidazo[4,5-b]pyridin-2-yl)-1H-pyrazolo[4,3-b]pyridine] | 3.27 µM | – | 5.85 µM | – |
| CN1CCN(c2ccnc3[nH]c(-c4n[nH]c5ccc(-c6cnccn6)nc45)nc23)CC1 [Compound 648, 3-(7-(4-Methylpiperazin-1-yl)-3H-imidazo[4,5-b]pyridin-2-yl)-5-(pyrazin-2-yl)-1H-pyrazolo[4,3-b]pyridine] | > 10 µM | 0% | 3.91 µM | – |
| c1cnc2[nH]c(-c3n[nH]c4ccc(-c5cn[nH]c5)nc34)nc2c1 [Compound 651, 3-(3H-Imidazo[4,5-b]pyridin-2-yl)-5-(1H-pyrazol-4-yl)-1H-pyrazolo[4,3-b]pyridine] | > 10 µM | 28.6% | > 10 µM | 3.1% |
| c1cnc2[nH]c(-c3n[nH]c4ccc(-c5cncc(OC6CCNCC6)c5)nc34)nc2c1 [Compound 656, 3-(3H-Imidazo[4,5-b]pyridin-2-yl)-5-(5-(piperidin-4-yloxy)pyridin-3-yl)-1H-pyrazolo[4,3-b]pyridine] | 6.27 µM | – | > 10 µM | 11.4% |
| Oc1cncc(-c2ccc3[nH]nc(-c4nc5cccnc5[nH]4)c3n2)c1 [Compound 661, 5-(3-(3H-Imidazo[4,5-b]pyridin-2-yl)-1H-pyrazolo[4,3-b]pyridin-5-yl) pyridin-3-ol] | > 10 µM | 6.2% | > 10 µM | 13% |
| O=C(CC1CCNCC1)Nc1cncc(-c2ccc3[nH]nc(-c4nc5c(-c6ccsc6)ccnc5[nH]4)c3n2)c1 [Compound 673, 2-(Piperidin-4-yl)-N-(5-(3-(7-(thiophen-3-yl)-3H-imidazo[4,5-b]pyridin-2-yl)-1H-pyrazolo[4,3-b]pyridin-5-yl)pyridin-3-yl)acetamide] | 4.75 µM | – | > 10 µM | 0.6% |
| Cc1ncc(-c2ccc3[nH]nc(-c4nc5c(-c6ccoc6)ccnc5[nH]4)c3n2)n1C [Compound 685, 5-(1,2-Dimethyl-1H-imidazol-5-yl)-3-(7-(furan-3-yl)-3H-imidazo[4,5-b]pyridin-2-yl)-1H-pyrazolo[4,3-b]pyridine] | > 10 µM | 0% | 4.19 µM | – |
| c1cc(-c2ccoc2)c2nc(-c3n[nH]c4ccc(-c5cncc(OCCN6CCCC6)c5)nc34)[nH]c2n1 [Compound 690, 3-(7-(Furan-3-yl)-3H-imidazo[4,5-b]pyridin-2-yl)-5-(5-(2-(pyrrolidin-1-yl)ethoxy)pyridin-3-yl)-1H-pyrazolo[4,3-b]pyridine] | 4.75 µM | – | > 10 µM | 26.6% |
| COc1cncc(-c2ccc3[nH]nc(-c4nc5c(-c6ccoc6)ccnc5[nH]4)c3n2)c1 [Compound 692, 3-(7-(Furan-3-yl)-3H-imidazo[4,5-b]pyridin-2-yl)-5-(5-methoxypyridin-3-yl)-1H-pyrazolo[4,3-b]pyridine] | 1.32 µM | – | > 10 µM | 17.6% |
| Cn1cc(-c2ccc3[nH]nc(-c4nc5c(-c6cccs6)ccnc5[nH]4)c3n2)cn1 [Compound 700, 5-(1-Methyl-1H-pyrazol-4-yl)-3-(7-(thiophen-2-yl)-3H-imidazo[4,5-b]pyridin-2-yl)-1H-pyrazolo[4,3-b]pyridine] | 0.438 µM | – | > 10 µM | 0.1% |
| CN(C)CCOc1cncc(-c2ccc3[nH]nc(-c4nc5c(-c6cccs6)ccnc5[nH]4)c3n2)c1 [Compound 707, N,N-Dimethyl-2-((5-(3-(7-(thiophen-2-yl)-3H-imidazo[4,5-b]pyridin-2-yl)-1H-pyrazolo[4,3-b]pyridin-5-yl)pyridin-3-yl)oxy)ethan-1-amine] | 2.43 µM | – | 3.87 µM | – |
| Cc1ccc(-c2ccnc3[nH]c(-c4n[nH]c5ccc(-c6cncc(OC7CCCCC7)c6)nc45)nc23)s1 [Compound 735, 5-(5-(Cyclohexyloxy)pyridin-3-yl)-3-(7-(5-methylthiophen-2-yl)-3H-imidazo[4,5-b]pyridin-2-yl)-1H-pyrazolo[4,3-b]pyridine] | 0.139 µM | – | > 10 µM | 10.9% |
| Cn1cc(-c2ccc3[nH]nc(-c4nc5c(-c6cc(F)cc(CNS(C)(=O)=O)c6)ccnc5[nH]4)c3n2)cn1 [Compound 764, N-(3-Fluoro-5-(2-(5-(1-methyl-1H-pyrazol-4-yl)-1H-pyrazolo[4,3-b]pyridin-3-yl)-3H-imidazo[4,5-b]pyridin-7-yl)benzyl)methanesulfonamide] | > 10 µM | 26.8% | > 10 µM | 0% |
| CS(=O)(=O)NCc1cc(F)cc(-c2ccnc3[nH]c(-c4n[nH]c5ccc(-c6cncc(NC(=O)CC7CCNCC7)c6)nc45)nc23)c1 [Compound 769, N-(5-(3-(7-(3-Fluoro-5-(methylsulfonamidomethyl)phenyl)-3H-imidazo[4,5-b]pyridin-2-yl)-1H-pyrazolo[4,3-b]pyridin-5-yl)pyridin-3-yl)-2-(piperidin-4-yl)acetamide] | 4.46 µM | – | > 10 µM | 8.5% |
| CN(C)CCNc1cc(F)cc(-c2ccnc3[nH]c(-c4n[nH]c5ccc(-c6cncc(OCCN7CCCC7)c6)nc45)nc23)c1 [Compound 786, N^1-(3-Fluoro-5-(2-(5-(5-(2-(pyrrolidin-1-yl)ethoxy)pyridin-3-yl)-1H-pyrazolo[4,3-b]pyridin-3-yl)-3H-imidazo[4,5-b]pyridin-7-yl)phenyl)-N^2,N^2-dimethylethane-1,2-diamine] | 2.9 µM | – | 9.87 µM | – |
| CN(C)CCNc1cc(F)cc(-c2ccnc3[nH]c(-c4n[nH]c5ccc(-c6cnccn6)nc45)nc23)c1 [Compound 792, N^1-(3-Fluoro-5-(2-(5-(pyrazin-2-yl)-1H-pyrazolo[4,3-b]pyridin-3-yl)-3H-imidazo[4,5-b]pyridin-7-yl)phenyl)-N^2,N^2-dimethylethane-1,2-diamine] | 2.24 µM | – | 4.37 µM | – |
| COc1cccc(-c2ccnc3[nH]c(-c4n[nH]c5ccc(-c6cncc(OC7CCNCC7)c6)nc45)nc23)c1 [Compound 1025, 3-(7-(3-Methoxyphenyl)-3H-imidazo[4,5-b]pyridin-2-yl)-5-(5-(piperidin-4-yloxy)pyridin-3-yl)-1H-pyrazolo[4,3-b]pyridine] | 2.91 µM | – | > 10 µM | 15.8% |

Source: patent publication US10329309B2, “3-(3H-imidazo[4,5-B]pyridin-2-yl)-1H-pyrazolo[4,3-B]pyridines and therapeutic uses thereof” (Samumed, LLC, priority 2015, dated 2019)
